The subject of data set [1] is COVID-19 patients. Kind of data set: centhaquine (Lyfaquin) in COVID-19 patients. The format is in vivo, human. Conditions: for slope of SpO2/FiO2 versus age of patient: basal slope −1.062. How it is done: The effect of centhaquine (Lyfaquin®) was determined COVID-19 patients. A significant improvement in oxygen saturation (SpO2) of COVID-19 patients by intravenous administration of centhaquine in the dose of 0.01 mg/kg was observed (FIG. 2). An improvement of SpO2 improved by 12.40 units within 2 hours of administration of centhaquine and further treatment with centhaquine led to an improvement of SpO2 by about 20 units.
We also determined the effect of age on the improvement in ratio of SpO2 and FiO2 (SpO2/FiO2) after administration of centhaquine (FIG. 3). […] Centhaquine (Lyfaquin®) improved SpO2/FiO2 in COVID-19 patients.
WHO Ordinal Scale was used to determine whether centhaquine (Lyfaquin®) improved the outcome of patients with COVID-19 (FIG. 5).

In data set [2] the test system is patients with hypovolemic shock. Kind of data set: phase III randomized, blinded, multicenter study in hypovolemic shock (NCT04045327). The format is in vivo, human. The source says:
ARDS in Shock Patients (N=105): Acute Respiratory Distress Syndrome (ARDS) was compared between day 1 (before resuscitation) and day 3 of resuscitation. In control patients receiving standard treatment the difference between means was 0.04839±0.05696 (P=0.4023). On the other hand, in centhaquine treated group the ARDS difference between means was 0.1065±0.04464 (P=0.0202).
MODS in Shock Patients (N=105): Multiple Organ Dysfunction Score (MODS) was compared between day 3 and day 7 of resuscitation. There was no improvement in MODS in the control group and the difference between means was 0.00±0.2697 (P>0.999), whereas in centhaquine group the difference between means was 0.9091±0.1964 (P=0.0001).

For data set [3] the test system is unchanged. Kind of data set: clinical phase II study in hypovolemic shock (NCT04056065). The format is in vivo, human.
Another data set relates to healthy human subjects. Kind of data set: Phase I safety study (NCT02408731). The format is in vivo. From the text: Centhaquine has been evaluated for its safety, sensitivity and toxicity in various species for single and multiple doses and acute as well as chronic exposure (33).
Centhaquine has been evaluated for its safety, sensitivity and toxicity in various species for single and multiple doses and acute as well as chronic exposure (33). […] Safety and efficacy of centhaquine is established (Phase I, phase II and phase III clinical studies)

For a further data set, the system named is swine model of shock. The conditions noted are these: in vivo; cited from earlier work.
Data set [4] deals with models of hypovolemic shock. Conditions: in vivo; cited from earlier work.
In data set [5] the test system is swine model of in hospital cardiac arrest. Conditions: in vivo; cited from earlier work.
For data set [6], the system named is patients with hypovolemic shock. Kind of data set: combined / metanalysis of phase II and III trials in hypovolemic shock.
Description: In a 105-patient randomized, blinded, multicenter study (CTRI/2019/01/017196; NCT04045327) a total of 34 (22 male and 12 female) patients in control and 68 (41 male and 27 female) patients in centhaquine groups completed the study. […] In total 180 human subjects have been studied (combined phase I, II and III), out of which 155 were patients with hypovolemic shock.
Another data set has as its system SARS-CoV-2. Conditions: cited from earlier work.
Data set [7] concerns SARS-CoV-2 viral load in nasopharyngeal swabs. The conditions noted are these: 600 mg daily; day 6 post inclusion compared to controls; cited from earlier work.
For data set [8], the system named is COVID-19 patients. The conditions noted are these: 13 patients; inhalation 10 mg; cited from earlier work.

As usually defined, the mortality is the share of the test organisms that died. On to `Cc1cccc(N2CCN(CCc3ccc4ccccc4n3)CC2)c1` [centhaquine], for which the “slope of SpO2/FiO2 versus age of patient” value in the data set on COVID-19 patients [1] (at 2 hours of treatment) is recorded as −0.5905; in the data set with COVID-19 patients [1] (at 4 hours of treatment), −0.2718. Besides, in the data set on COVID-19 patients [1] (at 72 hours of resuscitation, N=10, p=0.0169), the “improvement in WHO Ordinal Scale, mean difference” value came to 0.7444. Further, the “patients who did not need oxygen therapy” value with COVID-19 patients [1] (at 72 hours of treatment) is recorded as “Four out of 10”. Further, the “improvement of oxygen saturation (SpO2)” value with COVID-19 patients [1] (further treatment with centhaquine) was “about 20 units”; in the data set with COVID-19 patients [1] (within 2 hours of intravenous centhaquine 0.01 mg/kg), 12.40 units. In addition, the entries for the “improvement of SpO2/FiO2” value with COVID-19 patients [1] (in 4 hours) and in the data set on COVID-19 patients [1] (within 2 hours) were 41.42 units and 34.48 units, respectively. Further, the “ARDS difference between means” value in data set [2] (day 1 (before resuscitation) vs day 3 of resuscitation, P=0.0202) is 0.1065±0.04464. Also, the blood lactate levels entry in data set [2] (day 3 of resuscitation, compared to control, P=0.046) was “significantly lower”. In addition, in data set [2] (day 3 vs day 7 of resuscitation, P=0.0001), the “MODS difference between means” value is on record as 0.9091±0.1964. Besides, the “adverse events related to centhaquine” value in data set [2] (phase III) and in data set [3] (phase II) was “NO adverse events” each time. This molecule also came in with a 28-day all-cause mortality in data set [2] (versus 11.76% with standard treatment, P=0.0742) of 2.94%. Also, the mortality result in data set [3] (human, in vivo) is given as “reduced mortality”; in data set [6] (155 patients with hypovolemic shock, versus 9.68% with standard treatment) it was 2.15%; in [6] (metanalysis of phase II and III trials, versus 10.71%), 2.20%. For the same molecule, the use of vasopressors result in data set [3] (human, in vivo) was “reduction in use of vasopressors”. Further, the base-deficit result in data set [3] (p<0.0001) is reported as “highly significant efficacy”. Further, the blood pressure result in [3] (p<0.0001) was “highly significant efficacy”. The lactate levels entry in data set [3] (p=0.0012) is “highly significant efficacy”. The safety and tolerability result with healthy human subjects was “safe and well tolerated”. Also, the “Horowitz index (PaO2/FiO2 ratio)” value with swine model of shock is reported as “improved”. Besides, the pulmonary edema entry in the data set on swine model of shock is “significantly reduced”. The survival entry in data set [4] is “improves survival”. The “efficacy as resuscitative agent” value in data set [5] was “highly effective”. Besides, the mortality odds ratio in data set [6] (155 patients, 95% CI 1.162-24.18, P=0.0190) was found to be 4.875; in data set [6] (metanalysis of phase II and III, 95% CI 1.27-26.50, p=0.0271), 5.340. In addition, in data set [6] (N=155), the ARDS scores entry was “significantly improved”. For the same molecule, in data set [6] (N=155), the MODS score entry is given as “significantly improved”.

With `CCN(CC)CCCC(C)Nc1ccnc2cc(Cl)ccc12` (stereo not shown) [chloroquine], in the data set with SARS-CoV-2, the “inhibition of SARS-CoV-2 in vitro” value is given as “effectively inhibit”.

With `CCN(CCO)CCCC(C)Nc1ccnc2cc(Cl)ccc12` (stereo not shown) [hydroxychloroquine], in data set [7], the viral carriage result is given as “significant reduction”.

B1: plasminogen: plasminogen supplementation given by inhalation, 10 mg dissolved in 2 ml sterile water (protein, UniProt P00747 20-810, looked up)
Plasminogen: EPLDDYVNTQGASLFSVTKKQLGAGSIEECAAKCEEDEEFTCRAFQYHSKEQQCVIMAENRKSSIIIRMRDVVLFEKKVYLSECKTGNGKNYRGTMSKTKNGITCQKWSSTSPHRPRFSPATHPSEGLEENYCRNPDNDPQGPWCYTTDPEKRYDYCDILECEEECMHCSGENYDGKISKTMSGLECQAWDSQSPHAHGYIPSKFPNKNLKKNYCRNPDRELRPWCFTTDPNKRWELCDIPRCTTPPPSSGPTYQCLKGTGENYRGNVAVTVSGHTCQHWSAQTPHTHNRTPENFPCKNLDENYCRNPDGKRAPWCHTTNSQVRWEYCKIPSCDSSPVSTEQLAPTAPPELTPVVQDCYHGDGQSYRGTSSTTTTGKKCQSWSSMTPHRHQKTPENYPNAGLTMNYCRNPDADKGPWCFTTDPSVRWEYCNLKKCSGTEASVVAPPPVVLLPDVETPSEEDCMFGNGKGYRGKRATTVTGTPCQDWAAQEPHRHSIFTPETNPRAGLEKNYCRNPDGDVGGPWCYTTNPRKLYDYCDVPQCAAPSFDCGKPQVEPKKCPGRVVGGCVAHPHSWPWQVSLRTRFGMHFCGGTLISPEWVLTAAHCLEKSPRPSSYKVILGAHQEVNLEPHVQEIEVSRLFLEPTRKDIALLKLSSPAVITDKVIPACLPSPNYVVADRTECFITGWGETQGTFGAGLLKEAQLPVIENKVCNRYEFLNGRVQSTELCAGHLAGGTDSCQGDSGGPLVCFEKDKYILQGVTSWGLGCARPNKPGVYVRVSRFVTWIEGVMRNN
On to B1, for which, in the data set on COVID-19 patients [8], the “patients with improved oxygen saturation” value is given as 6 patients and the “patients with improvement in density of 'ground glass' opacity” value is listed as 5 patients.

The record behind these values is patent publication US20220362239A1, “PHARMACEUTICAL COMPOSITION AND METHOD FOR TREATMENT OF ACUTE RESPIRATORY DISTRESS SYNDROME (ARDS) IN CORONAVIRUS DISEASE (COVID-19)” (PHARMAZZ, INC., priority 2021, published 2022).
